How the values were obtained:
[1] = target: T1, Human M3 receptor (Homo sapiens, UniProt P20309); assay: M3 Receptor Radioligand Binding Assay; conditions: human M3 receptor membranes, [3H]-N-methyl scopolamine; read-out: M3 binding affinity (Ki class)
T1 construct: purchased Perkin Elmer
How it was run: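 Radioligand binding with 0.5% (v/v) final DMSO, incubated 2 h at room temperature with shaking. Membranes were collected on GF/C filters pre-treated with 0.5% polyethyleneimine, washed four times with assay buffer, and counted by scintillation.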

[2] = target: T2, Human β2 adrenoceptor (Homo sapiens, UniProt P07550); assay: β2 Adrenoceptor Radioligand Binding Assay; conditions: human β2 adrenoceptor membranes, 125-I Cyanopindolol; read-out: B2 binding affinity (Ki class)
T2 construct: purchased Perkin Elmer
T2 sequence (P07550 whole entry): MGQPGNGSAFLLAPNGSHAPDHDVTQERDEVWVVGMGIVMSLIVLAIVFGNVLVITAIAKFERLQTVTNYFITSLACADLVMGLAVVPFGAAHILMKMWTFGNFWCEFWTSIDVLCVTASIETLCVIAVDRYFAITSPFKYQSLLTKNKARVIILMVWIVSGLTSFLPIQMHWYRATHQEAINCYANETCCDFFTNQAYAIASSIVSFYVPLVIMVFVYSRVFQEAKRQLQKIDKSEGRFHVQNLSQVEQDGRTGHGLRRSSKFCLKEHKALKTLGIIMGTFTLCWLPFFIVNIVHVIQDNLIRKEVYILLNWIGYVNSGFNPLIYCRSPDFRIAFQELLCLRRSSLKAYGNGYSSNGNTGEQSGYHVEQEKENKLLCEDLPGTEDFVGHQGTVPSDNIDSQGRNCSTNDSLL
How it was run: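 Membranes were incubated 1 h at room temperature in 25 mM HEPES, 0.5% BSA, 1 mM EDTA, 0.02% ascorbic acid, pH 7.4, with 0.5% DMSO final. Bound radioligand was collected by GF/C filtration and counted by scintillation. IC50 values from competition curves were converted to Ki by Cheng–Prusoff.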

T1 sequence (P20309 whole entry): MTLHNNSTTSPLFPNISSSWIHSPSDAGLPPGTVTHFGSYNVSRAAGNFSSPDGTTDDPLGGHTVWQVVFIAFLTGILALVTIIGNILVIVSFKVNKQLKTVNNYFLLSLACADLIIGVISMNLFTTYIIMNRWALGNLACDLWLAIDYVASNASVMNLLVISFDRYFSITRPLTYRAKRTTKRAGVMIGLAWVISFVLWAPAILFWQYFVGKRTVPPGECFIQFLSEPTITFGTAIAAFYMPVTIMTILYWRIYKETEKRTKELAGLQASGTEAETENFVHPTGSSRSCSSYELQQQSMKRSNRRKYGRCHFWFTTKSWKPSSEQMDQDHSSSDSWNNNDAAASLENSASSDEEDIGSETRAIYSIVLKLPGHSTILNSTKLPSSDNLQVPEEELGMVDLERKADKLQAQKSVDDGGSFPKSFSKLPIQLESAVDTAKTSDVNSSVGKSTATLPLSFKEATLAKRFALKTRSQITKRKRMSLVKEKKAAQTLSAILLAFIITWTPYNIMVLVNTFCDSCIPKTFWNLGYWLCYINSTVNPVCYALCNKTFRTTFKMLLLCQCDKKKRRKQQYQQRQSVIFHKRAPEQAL

Cc1ccc(CN(CCCNC[C@H](O)c2ccc(O)c3[nH]c(=O)ccc23)C(=O)Cc2ccc(CC(=O)N3CCC(C(=O)O[C@H]4CN5CCC4CC5)(c4ccccc4)CC3)cc2)cc1 [Compound 33, (R)-Quinuclidin-3-yl 1-(2-(4-(2-((3-(((R)-2-hydroxy-2-(8-hydroxy-2-oxo-1,2-dihydroquinolin-5-yl)ethyl)amino)propyl)(4-methylbenzyl)amino)-2-oxoethyl)phenyl)acetyl)-4-phenylpiperidine-4-carboxylate]
Ki [1]: < 1 nM | Ki [2]: 1 to 10 nM

Cc1ccccc1CN(CCCNC[C@H](O)c1ccc(O)c2[nH]c(=O)ccc12)C(=O)Cc1ccc(CC(=O)N2CCC(C(=O)O[C@H]3CN4CCC3CC4)(c3ccccc3)CC2)cc1 [Compound 34, (R)-Quinuclidin-3-yl 1-(2-(4-(2-((3-(((R)-2-hydroxy-2-(8-hydroxy-2-oxo-1,2-dihydroquinolin-5-yl)ethyl)amino)propyl)(2-methylbenzyl)amino)-2-oxoethyl)phenyl)acetyl)-4-phenylpiperidine-4-carboxylate]
Ki [1]: < 1 nM | Ki [2]: < 1 nM

Cc1cccc(CN(CCCNC[C@H](O)c2ccc(O)c3[nH]c(=O)ccc23)C(=O)Cc2ccc(CC(=O)N3CCC(C(=O)O[C@H]4CN5CCC4CC5)(c4ccccc4)CC3)cc2)c1 [Compound 35, (R)-Quinuclidin-3-yl 1-(2-(4-(2-((3-(((R)-2-hydroxy-2-(8-hydroxy-2-oxo-1,2-dihydroquinolin-5-yl)ethyl)amino)propyl)(3-methylbenzyl)amino)-2-oxoethyl)phenyl)acetyl)-4-phenylpiperidine-4-carboxylate]
Ki [1]: < 1 nM | Ki [2]: < 1 nM

O=C(Cc1ccc(CC(=O)N(CCCNC[C@H](O)c2ccc(O)c3[nH]c(=O)ccc23)Cc2ccccc2)cc1)N1CCC(C(=O)O[C@H]2CN3CCC2CC3)(c2ccccc2)CC1 [Compound 36, (R)-Quinuclidin-3-yl 1-(2-(4-(2-(benzyl(3-(((R)-2-hydroxy-2-(8-hydroxy-2-oxo-1,2-dihydroquinolin-5-yl)ethyl)amino)propyl)amino)-2-oxoethyl)phenyl)acetyl)-4-phenylpiperidine-4-carboxylate]
Ki [1]: < 1 nM | Ki [2]: < 1 nM

O=C(Cc1ccc(CC(=O)N(CCCNC[C@H](O)c2ccc(O)c3[nH]c(=O)ccc23)Cc2cccc(C(F)(F)F)c2)cc1)N1CCC(C(=O)O[C@H]2CN3CCC2CC3)(c2ccccc2)CC1 [Compound 37, (R)-Quinuclidin-3-yl 1-(2-(4-(2-((3-(((R)-2-hydroxy-2-(8-hydroxy-2-oxo-1,2-dihydroquinolin-5-yl)ethyl)amino)propyl)(3-(trifluoromethyl)benzyl)amino)-2-oxoethyl)phenyl)acetyl)-4-phenylpiperidine-4-carboxylate]
Ki [1]: < 1 nM | Ki [2]: 1 to 10 nM

COc1cccc(CN(CCCNC[C@H](O)c2ccc(O)c3[nH]c(=O)ccc23)C(=O)Cc2ccc(CC(=O)N3CCC(C(=O)O[C@H]4CN5CCC4CC5)(c4ccccc4)CC3)cc2)c1 [Compound 38, (R)-Quinuclidin-3-yl 1-(2-(4-(2-((3-(((R)-2-hydroxy-2-(8-hydroxy-2-oxo-1,2-dihydroquinolin-5-yl)ethyl)amino)propyl)(3-methoxybenzyl)amino)-2-oxoethyl)phenyl)acetyl)-4-phenylpiperidine-4-carboxylate]
Ki [1]: < 1 nM | Ki [2]: < 1 nM

O=C(Cc1ccc(CC(=O)N(CCCNC[C@H](O)c2ccc(O)c3[nH]c(=O)ccc23)Cc2cccc(Oc3ccc(Cl)c(Cl)c3)c2)cc1)N1CCC(C(=O)O[C@H]2CN3CCC2CC3)(c2ccccc2)CC1 [Compound 40, (R)-Quinuclidin-3-yl 1-(2-(4-(2-((3-(3,4-dichlorophenoxy)benzyl)(3-(((R)-2-hydroxy-2-(8-hydroxy-2-oxo-1,2-dihydroquinolin-5-yl)ethyl)amino)propyl)amino)-2-oxoethyl)phenyl)acetyl)-4-phenylpiperidine-4-carboxylate]
Ki [1]: < 1 nM | Ki [2]: 1 to 10 nM

O=C(Cc1ccc(CC(=O)N(CCCNC[C@H](O)c2ccc(O)c3[nH]c(=O)ccc23)Cc2cccc(OCc3ccccc3)c2)cc1)N1CCC(C(=O)O[C@H]2CN3CCC2CC3)(c2ccccc2)CC1 [Compound 41, (R)-Quinuclidin-3-yl 1-(2-(4-(2-((3-(benzyloxy)benzyl)(3-(((R)-2-hydroxy-2-(8-hydroxy-2-oxo-1,2-dihydroquinolin-5-yl)ethyl)amino)propyl)amino)-2-oxoethyl)phenyl)acetyl)-4-phenylpiperidine-4-carboxylate]
Ki [1]: < 1 nM | Ki [2]: 1 to 10 nM

O=C(Cc1ccc(CC(=O)N(CCCNC[C@H](O)c2ccc(O)c3[nH]c(=O)ccc23)Cc2cccc(F)c2)cc1)N1CCC(C(=O)O[C@H]2CN3CCC2CC3)(c2ccccc2)CC1 [Compound 42, (R)-Quinuclidin-3-yl 1-(2-(4-(2-((3-fluorobenzyl)(3-(((R)-2-hydroxy-2-(8-hydroxy-2-oxo-1,2-dihydroquinolin-5-yl)ethyl)amino)propyl)amino)-2-oxoethyl)phenyl)acetyl)-4-phenylpiperidine-4-carboxylate]
Ki [1]: < 1 nM | Ki [2]: < 1 nM

O=C(Cc1ccc(CC(=O)N(CCCNC[C@H](O)c2ccc(O)c3[nH]c(=O)ccc23)Cc2ccccc2OCc2ccccc2)cc1)N1CCC(C(=O)O[C@H]2CN3CCC2CC3)(c2ccccc2)CC1 [Compound 43, (R)-Quinuclidin-3-yl 1-(2-(4-(2-((2-(benzyloxy)benzyl)(3-(((R)-2-hydroxy-2-(8-hydroxy-2-oxo-1,2-dihydroquinolin-5-yl)ethyl)amino)propyl)amino)-2-oxoethyl)phenyl)acetyl)-4-phenylpiperidine-4-carboxylate]
Ki [1]: < 1 nM | Ki [2]: 1 to 10 nM

O=C(Cc1ccc(CC(=O)N(CCCNC[C@H](O)c2ccc(O)c3[nH]c(=O)ccc23)Cc2ccccc2N2CCOCC2)cc1)N1CCC(C(=O)O[C@H]2CN3CCC2CC3)(c2ccccc2)CC1 [Compound 44, (R)-Quinuclidin-3-yl 1-(2-(4-(2-((3-(((R)-2-hydroxy-2-(8-hydroxy-2-oxo-1,2-dihydroquinolin-5-yl)ethyl)amino)propyl)(2-morpholinobenzyl)amino)-2-oxoethyl)phenyl)acetyl)-4-phenylpiperidine-4-carboxylate]
Ki [1]: < 1 nM | Ki [2]: 1 to 10 nM

O=C(Cc1ccc(CC(=O)N(CCCNC[C@H](O)c2ccc(O)c3[nH]c(=O)ccc23)Cc2ccccc2F)cc1)N1CCC(C(=O)O[C@H]2CN3CCC2CC3)(c2ccccc2)CC1 [Compound 45, (R)-Quinuclidin-3-yl 1-(2-(4-(2-((2-fluorobenzyl)(3-(((R)-2-hydroxy-2-(8-hydroxy-2-oxo-1,2-dihydroquinolin-5-yl)ethyl)amino)propyl)amino)-2-oxoethyl)phenyl)acetyl)-4-phenylpiperidine-4-carboxylate]
Ki [1]: < 1 nM | Ki [2]: < 1 nM

O=C(Cc1ccc(CC(=O)N2CCC(C(=O)O[C@H]3CN4CCC3CC4)(c3ccccc3)CC2)cc1)NCCCNC[C@H](O)c1ccc(O)c2[nH]c(=O)ccc12 [Compound 46, (R)-Quinuclidin-3-yl 1-(2-(4-(2-((3-(((R)-2-hydroxy-2-(8-hydroxy-2-oxo-1,2-dihydroquinolin-5-yl)ethyl)amino)propyl)amino)-2-oxoethyl)phenyl)acetyl)-4-phenylpiperidine-4-carboxylate]
Ki [1]: > 10 nM | Ki [2]: > 10 nM
